Patent US20140348748A1, “BETA-AMYLOID IMAGING AGENTS, METHODS OF MANUFACTURE, AND METHODS OF USE THEREOF” (priority 2011, published 2014)

What was measured:
[1] = molecular target: beta-amyloid plaques in AD brain tissue (Homo sapiens, UniProt P05067); assay: In vitro binding assay: competitive displacement of [3H]6-OH-BTA-1 in AD brain homogenate; details: for Ki: [3H]6-OH-BTA-1 as reference radioligand, AD brain tissue
Description: AD brain tissue was homogenized at 1:500 in PBS, and 800 μL suspension was used in each tube. [^3H]6-OH-BTA-1 with a concentration of 1 mCi/mL stock solution was diluted using ethanol to give an intermediate solution of 1 μCi/100 μL, which was further diluted using PBS to result in a dilute stock solution of 2.7×10^−2 μCi/100 μL, and 100 μL was used in each tube (2 vials with 100 μL of [^3H]6-OH-BTA-1 each and scintillation fluid as references). Cold 6-OH-BTA-1 or other displacer was dissolved in ethanol to result in a stock solution of 1×10^−3 M, which was further diluted using PBS or ethanol to result in solutions with concentrations ranging from 1×10^−5 to 10^−10 M, and 100 μL was used in each tube. After assembly, the tubes were vortexed, and incubated for 3 hrs at room temperature. After separation using a cell harvester, the filter paper (GF/B filter paper pretreated with 0.5% polyimine solution) was washed with 10% ethanol in PBS (3×3 mL). The filters were placed into 20 mL glass vials and 10 mL scintillation fluid each was added. After overnight incubation, the samples were counted. The data were analyzed using GraphPad Prism 4 or KaleidaGraph 3.6. […]
Some lipophilic ligands required ethanol in the medium to increase their solubility and to effect displacement of reference radioligand. […] This displacement curve was also analyzed using a homologous displacement mathematical model to extract the Bmax of the amyloid plaques. The measured Bmax is linear with the amount of amyloid used in the experiment. The ratio between Bmax and the amount of Aβ1-42 monomer measured by ELISA is about 1:2, somewhat less than that reported previously. […]
In this table, Ki is a measure (in nM units) of the binding affinity of the compound toward beta-amyloid plaques in AD brain tissue, measured through a competitive radioligand displacement in vitro assay using [^3H]6-OH-BTA-1 as the reference radioligand. The lipophilicity of the compound is represented by c Log D7.4 which is calculated through a software package (ACD/Log D version 8.0) at pH=7.4, a close mimic of physiological conditions. […]

[2] = Evaluation of radioligands in monkey in vivo with PET; parameters: species or system rhesus monkey; details: for brain uptake and washout (PET time-activity curves): intravenous, 18F-labelled
Description: A male rhesus monkey (15 kg) was initially immobilized with ketamine (15 mg/kg) and subsequently anesthetized with isoflurane (1.5%) for the duration of the experiment. The monkey was placed prone in the PET camera (HRRT, Siemens/CPS, Knoxyille, Tenn., USA). A fixation device was used to secure the monkey's head during scanning. A urinary catheter was inserted and clamped so that the activity overlaying the bladder represented the total urinary excretion during the scan. Electrocardiogram, body temperature, heart and respiration rates were measured throughout the experiment. Body temperature was controlled and monitored by a forced-air temperature management unit (Bair Hugger Model 505; Arizant Healthcare Inc.; MN, USA). The scanner consisted of eight flat panel detectors with a transaxial and axial coverage of 31.2 cm and 25.2 cm, respectively. The scanner is also equipped with dual-layered phoswich detector allowing depth-of-interaction. Dynamic PET scans were acquired in 64-bit list mode format, following the intravenous administration of Compound 1.6 (2.9 mCi). The scan lasted for 2 hours containing 33 frames with duration ranging from 30 seconds to 5 minutes. Data were reconstructed into a 256×256×207 image matrix (voxel size 1.21×1.21×1.23 mm), using a 3D list mode OSEM algorithm. The reconstructed image resolution was 2.5 mm. Transmission scan was acquired with a rotating ^137Cs point source for 6 minutes and used to correct for attenuation. A model-based scatter correction was applied. Tomographic images were analyzed with PMOD 2.6. Time activity curves (FIGS. 4-6) were calculated in % SUV for volume of interest (VOIs), defined by co-registration with MRI (see below), and compared for uptake and washout between different brain regions.
Co-registration of PET Data with MRI. All frames of the original reconstructed PET data were summed and then co-registered to a T1-weighted magnetic resonance (MR) image acquired separately on a 1.5 T Signa MR scanner (GE Medical Systems) with image analysis software MEDx (Sensor Systems Inc.; Sterling, Va., U.S.A.). The summed PET image was fused with the co-registered MR image with an image fusion tool in PMOD. Several VOIs for the source organs were then manually defined on this fused image with anatomical structures identified on the MR image.

[3] = test system: amyloid plaques in AD brain tissue slides; assay: Autoradiography on post mortem human brain tissue slides; type: binding; details: for binding in AD brain tissue slides (autoradiography): amyloid-loaded gray matter region; for radioactivity on healthy brain tissue (autoradiography): normal control brain tissue slides
Description: Coronal sections of cerebrum from a confirmed case of AD (person, postmortem interval (PMI) 47.5 hours) and a normal control (person, PMI 28.5 hours) were frozen rapidly in an equal mixture of dry ice and isopentane, sealed in a plastic bag and stored at −76° C. before sectioning. Frozen blocks of the medial temporal lobe (hippocampal region) were sectioned at a thickness of 14 μm, mounted on gelatin-coated glass slides, dried and stored under desiccant at −76° C. Before use, slide-mounted tissue sections were removed from the freezer, thawed at room temperature for 20 min, and air-dried. Compounds 1.6, 1.5 and 1.4 (1.0 mg) were dissolved in DMSO (3.529 mL) resulting in a stock solution of 1 mM, which was then further diluted with DMSO to 0.1 mM and then diluted with PBS to 1 μM. The AD tissue and normal tissue slides were pretreated with either a stock solution of Compounds 1.6, 1.5, and 1.4 or PBS for 20 min at room temperature. All slides were incubated for 20 min at room temperature in [^11C]PIB formulation solution (0.3 mCi). They were then dipped in ethanol for 5 min. The slides were dried on a hot plate with a stream of cold air and placed in a cassette with the exposed sides facing up. The phosphor imaging plate was held with the blue side down. The entire cassette was placed in the dark at room temperature overnight for ^11C-labeling. Digital autoradiography was acquired using a FUJI BAS 5000 phosphorimager (FUJI, Tokyo, Japan) with a resolution of 25 μm.

[4] = after intravenous injection into rodent or monkey; cited from earlier work

Chain of beta-amyloid plaques in AD brain tissue (P05067 672-711 limits assumed): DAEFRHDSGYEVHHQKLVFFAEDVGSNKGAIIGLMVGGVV

Row | Ki [1] [nM] | binding in AD brain tissue slides (autoradiography) [3] | Compound | brain uptake and washout (PET time-activity curves) ([2]; normal male rhesus monkey) | radioactivity on healthy brain tissue (autoradiography) [3] | SUV (standardized uptake value) of radioactivity in brain [4] | other results
1 | 10 | clear displaceable binding | CNc1ccc(-c2nc3ccc(OC)cc3s2)nc1F [Compound 1.5, 2-Fluoro-6-(6-methoxybenzo[d]thiazol-2-yl)-N-methylpyridin-3-amine] | entered the brain very well and washed out fast | no radioactivity was observed |  | 
2 | 20 | clear displaceable binding | CNc1ccc(-c2nc3ccc(O)cc3s2)nc1F [Compound 1.6, 2-(6-Fluoro-5-(methylamino)pyridin-2-yl)benzo[d]thiazol-6-ol] | entered the brain very well and washed out fast | no radioactivity was observed |  | pharmacokinetics compared among the three radioligands ([2]; normal male rhesus monkey, PET): most promising pharmacokinetics; time to uniform distribution of radioactivity after injection ([2]; normal monkey, PET): less than 1 hour; binding with amyloid plaques from autoradiography ([3]; summary statement): specific binding
3 |  |  | CNc1ccc(-c2nc3ccc(O)cc3s2)cc1 [Compound 6-OH-BTA-1, 2-[4-(methylamino)phenyl]-6-hydroxybenzothiazole, reference compound] |  |  |  | displacement of reference radioligand ([1]; [3H]6-OH-BTA-1 displaced by non-radioactive ligand, isolated amyloid plaques): > 95%
4 |  |  | CN(CCF)c1ccc(-c2cn3cc(I)ccc3n2)cc1 [[^18F]FEM-IMPY, N-(2-fluoroethyl)-4-(6-iodo-H-imidazo[1,2-a]pyridin-2-yl)-N-methylbenzeneamine] |  |  | about 160 % I.D. kg/g | 
5 |  |  | CN(CCC[18F])c1ccc(-c2cn3cc(I)ccc3n2)cc1 [[^18F]FPM-IMPY] |  |  | about 160 % I.D. kg/g | 
